Values joined by “and” are separate entries in the source; they are usually repeats but may differ in a detail not shown here. Identical values can stand only once. Inconclusive results and toxic doses are left out. No stated cut-off is given here; in the data, active means T/C of 150% or more; inactive means T/C below 125%.
Tested on: L1210 leukemia ip in BDF1 mice, survival T/C
Experiment: NCI In Vivo Anticancer Drug Screen. Data for tumor model L1210 Leukemia (intraperitoneal) in B6D2F1 (BDF1) mice
Conditions: endpoint: mean survival time, higher = longer survival
Outline: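 Tumor cells were implanted, animals were treated, and survival was followed. The result divides the treated measurement by the vehicle-control measurement.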

[1] = dose: 100.0 mg/kg/injection, schedule: Q01DX001 (ip), vehicle: saline
[2] = dose: 100.0 mg/kg/injection, schedule: Q04DX003 (ip), vehicle: saline with Tween-80
[3] = dose: 200.0 mg/kg/injection, schedule: Q01DX001 (ip), vehicle: saline
[4] = dose: 200.0 mg/kg/injection, schedule: Q04DX003 (ip), vehicle: saline with Tween-80
[5] = dose: 400.0 mg/kg/injection, schedule: Q01DX001 (ip), vehicle: saline
[6] = dose: 400.0 mg/kg/injection, schedule: Q04DX003 (ip), vehicle: saline with Tween-80
[7] = dose: 100.0 mg/kg/injection, schedule: Q01DX009 (ip), vehicle: Klucel (hydroxypropylcellulose) (HPC)
[8] = dose: 200.0 mg/kg/injection, schedule: Q01DX009 (ip), vehicle: Klucel (hydroxypropylcellulose) (HPC)
[9] = dose: 400.0 mg/kg/injection, schedule: Q01DX009 (ip), vehicle: Klucel (hydroxypropylcellulose) (HPC)
[10] = dose: 100.0 mg/kg/injection, schedule: Q04DX003 (ip), vehicle: Klucel (hydroxypropylcellulose) (HPC)
[11] = dose: 200.0 mg/kg/injection, schedule: Q04DX003 (ip), vehicle: Klucel (hydroxypropylcellulose) (HPC)
[12] = dose: 400.0 mg/kg/injection, schedule: Q04DX003 (ip), vehicle: Klucel (hydroxypropylcellulose) (HPC)
[13] = dose: 100.0 mg/kg/injection, schedule: Q04DX003 (ip), vehicle: saline
[14] = dose: 200.0 mg/kg/injection, schedule: Q04DX003 (ip), vehicle: saline
[15] = dose: 400.0 mg/kg/injection, schedule: Q04DX003 (ip), vehicle: saline
[16] = dose: 12.5 mg/kg/injection, schedule: Q01DX009 (ip), vehicle: Klucel (hydroxypropylcellulose) (HPC)
[17] = dose: 25.0 mg/kg/injection, schedule: Q01DX009 (ip), vehicle: Klucel (hydroxypropylcellulose) (HPC)
[18] = dose: 100.0 mg/kg/injection, schedule: Q04DX002 (ip), vehicle: other
[19] = dose: 200.0 mg/kg/injection, schedule: Q04DX002 (ip), vehicle: other
[20] = dose: 400.0 mg/kg/injection, schedule: Q04DX002 (ip), vehicle: other

Measured: T/C

O=C(/C=C/c1ccc2c(c1)OCO2)c1ccc(OCc2ccccc2)cc1
inactive: dose: 25.0 mg/kg/injection, schedule: Q04DX002 (ip), vehicle: saline 111 % of control | dose: 50.0 mg/kg/injection, schedule: Q04DX002 (ip), vehicle: saline 108 % of control | dose: 100.0 mg/kg/injection, schedule: Q04DX002 (ip), vehicle: saline 118 % of control | dose: 200.0 mg/kg/injection, schedule: Q04DX002 (ip), vehicle: saline 96 % of control | dose: 400.0 mg/kg/injection, schedule: Q04DX002 (ip), vehicle: saline 92 % of control

COc1ccc(C2NC(=O)NC2=O)cc1 (centres undefined)
inactive: dose: 50.0 mg/kg/injection, schedule: Q01DX001 (ip), vehicle: saline 105 % of control | [1] 105 % of control | [2] 108 % of control | [3] 102 % of control | [4] 103 % of control | [5] 111 % of control | [6] 92 % of control

Cc1cccc(Cl)c1NC(=O)Nc1onc(C)c1C
inactive: [7] 103 % of control | [8] 100 % of control | [9] 92 % of control

CC(=O)c1cccc(NC(=O)Nc2ncccc2C)c1
inactive: [7] 102 % of control | [8] 101 % of control | [9] 98 % of control

CN(Cc1ccccc1)c1cc(=O)[nH]c(=O)[nH]1
inactive: [10] 102 % of control | [11] 96 % of control | [12] 100 % of control

C=CC1(CCC(C)C)C(=O)NC(=O)NC1=O
inactive: dose: 75.0 mg/kg/injection, schedule: Q01DX001 (ip), vehicle: saline 91 % of control | dose: 150.0 mg/kg/injection, schedule: Q01DX001 (ip), vehicle: saline 105 % of control | dose: 300.0 mg/kg/injection, schedule: Q01DX001 (ip), vehicle: saline 98 % of control

CCOC(=O)C(Cc1ccccc1Cl)(Cc1ccccc1Cl)c1ccccc1
inactive: dose: 100.0 mg/kg/injection, schedule: Q01DX009 (ip), vehicle: saline with Tween-80 92 % of control | dose: 200.0 mg/kg/injection, schedule: Q01DX009 (ip), vehicle: saline with Tween-80 90 % of control | dose: 400.0 mg/kg/injection, schedule: Q01DX009 (ip), vehicle: saline with Tween-80 90 % of control

OCC1OC(n2cnc3c(SSc4ncnc5c4ncn5C4OC(CO)C(O)C4O)ncnc32)C(O)C1O (centres undefined)
inactive: [1] 95 % of control | [3] 106 % of control | [5] 121 % of control

C=C1C(=O)OC2C1CCC(C)C1(CCC(=O)O1)C2(C)O (centres undefined)
inactive: [2] 96 % of control | [4] 96 % of control | [6] 96 % of control

CC1CCC(C)(C)CC1(C)c1cc(CN(C)C)c(O)c(CN(C)C)c1 (centres undefined)
inactive: dose: 12.5 mg/kg/injection, schedule: Q04DX003 (ip), vehicle: acetone 93 % of control | dose: 25.0 mg/kg/injection, schedule: Q04DX003 (ip), vehicle: acetone 98 % of control | dose: 50.0 mg/kg/injection, schedule: Q04DX003 (ip), vehicle: acetone 90 % of control

Clc1ccc(COCc2ccccc2COCc2ccc(Cl)cc2Cl)c(Cl)c1
inactive: [10] 93 % of control | [11] 96 % of control | [12] 88 % of control

CCOC(=O)/C(C#N)=N/O
inactive: dose: 18.8 mg/kg/injection, schedule: Q01DX009 (ip), vehicle: saline 94 % of control | dose: 18.8 mg/kg/injection, schedule: Q04DX003 (ip), vehicle: saline 95 % of control | dose: 37.5 mg/kg/injection, schedule: Q01DX009 (ip), vehicle: saline 91 % of control | dose: 37.5 mg/kg/injection, schedule: Q04DX003 (ip), vehicle: saline 97 % of control | dose: 75.0 mg/kg/injection, schedule: Q04DX003 (ip), vehicle: saline 97 % of control

O=S(=O)(CCCl)CCc1ccccc1
inactive: dose: 100.0 mg/kg/injection, schedule: Q04DX002 (ip), vehicle: saline with Tween-80 96 % of control | dose: 200.0 mg/kg/injection, schedule: Q04DX002 (ip), vehicle: saline with Tween-80 89 % of control | dose: 400.0 mg/kg/injection, schedule: Q04DX002 (ip), vehicle: saline with Tween-80 93 % of control

O=C(O)C1CCN1Cc1ccccc1 (centres undefined)
inactive: [13] 98 % of control | [14] 101 % of control | [15] 106 % of control

C=C(C)[C@@H]1CC[C@@H](C)C[C@H]1O
inactive: [1] 103 % of control | [3] 100 % of control | [5] 105 % of control

CCOC(=O)NCC(CCN1CCCC1)(c1cccc2ccccc12)C(C)C (centres undefined)
inactive: [16] 104 % of control | dose: 12.5 mg/kg/injection, schedule: Q04DX003 (ip), vehicle: Klucel (hydroxypropylcellulose) (HPC) 87 % of control | [17] 102 % of control | dose: 50.0 mg/kg/injection, schedule: Q01DX009 (ip), vehicle: Klucel (hydroxypropylcellulose) (HPC) 101 % of control | dose: 50.0 mg/kg/injection, schedule: Q04DX003 (ip), vehicle: Klucel (hydroxypropylcellulose) (HPC) 95 % of control

COC(=O)CSc1ncc2cnccn12
inactive: dose: 100.0 mg/kg/injection, schedule: Q01DX009 (ip), vehicle: water 105 % of control | dose: 100.0 mg/kg/injection, schedule: Q04DX003 (ip), vehicle: water 119 % of control | dose: 200.0 mg/kg/injection, schedule: Q01DX009 (ip), vehicle: water 98 % of control | dose: 200.0 mg/kg/injection, schedule: Q04DX003 (ip), vehicle: water 98 % of control | dose: 400.0 mg/kg/injection, schedule: Q01DX009 (ip), vehicle: water 98 % of control | dose: 400.0 mg/kg/injection, schedule: Q04DX003 (ip), vehicle: water 104 % of control

CCOC(=O)NC(=O)n1ncnc1N
inactive: [13] 108 % of control | [14] 103 % of control | [15] 94 % of control

NC(=Nc1ccccc1)Nc1ccccc1
inactive: dose: 6.25 mg/kg/injection, schedule: Q01DX009 (ip), vehicle: Klucel (hydroxypropylcellulose) (HPC) 101 % of control | [16] 101 % of control | dose: 12.5 mg/kg/injection, schedule: Q01DX009 (ip), vehicle: saline with Tween-80 97 % of control | [17] 89 % of control | dose: 25.0 mg/kg/injection, schedule: Q01DX009 (ip), vehicle: saline with Tween-80 102 % of control | dose: 35.0 mg/kg/injection, schedule: Q01DX009 (ip), vehicle: saline 101 % of control | dose: 50.0 mg/kg/injection, schedule: Q01DX009 (ip), vehicle: saline with Tween-80 97 % of control

O=c1c2ccccc2ncn1CCCBr
inactive: dose: 75.0 mg/kg/injection, schedule: Q01DX009 (ip), vehicle: saline 95 % of control | dose: 150.0 mg/kg/injection, schedule: Q01DX009 (ip), vehicle: saline 103 % of control | dose: 300.0 mg/kg/injection, schedule: Q01DX009 (ip), vehicle: saline 95 % of control

Cc1ccc(C2(CO)OCC(O)C(O)C2O)cc1 (centres undefined)
inactive: [1] 100 % of control | [3] 96 % of control | [5] 98 % of control

COc1cc(OC)c(/C=C2\N=C(c3ccccc3)OC2=O)c(OC)c1
inactive: [18] 91 % of control | [19] 102 % of control | [20] 88 % of control

O=C(Nc1ccc(Cl)cc1)SCCSC(=O)Nc1ccc(Cl)cc1
inactive: [18] 97 % of control and 101 % of control | dose: 100.0 mg/kg/injection, schedule: Q04DX003 (ip), vehicle: other 98 % of control and 105 % of control | [19] 93 % of control and 101 % of control | dose: 200.0 mg/kg/injection, schedule: Q04DX003 (ip), vehicle: other 94 % of control and 89 % of control | [20] 95 % of control and 90 % of control | dose: 400.0 mg/kg/injection, schedule: Q04DX003 (ip), vehicle: other 95 % of control and 91 % of control

CC/C=C(CC)/C(=C/CC)CC
inactive: [1] 97 % of control | dose: 100.0 mg/kg/injection, schedule: Q01DX009 (ip), vehicle: saline 98 % of control | [3] 105 % of control | dose: 200.0 mg/kg/injection, schedule: Q01DX009 (ip), vehicle: saline 96 % of control | [5] 102 % of control

From PubChem BioAssay AID248 (DTP/NCI, 2004)
